We go through 65 compounds from a melting point compilation (Tetko et al.; mined from patent text by program, amines drawn as free bases though some values may be those of a salt).

For orientation: melting point means the temperature of the solid-liquid transition.

In turn, `CSc1cc2c(cc1C(F)(F)F)N(C(=O)Nc1ccccc1)CC2` came in with a melting point of 163 to 165 °C. The value for `Cc1c(Br)c(C)c2c(C)coc2c1Cc1ccc(C(C)C)cc1` was 76 to 77 °C.

Compound `Cn1ccc2ccc(OCc3ccccc3)cc21` showed a melting point of 79 °C. Then `O=[N+]([O-])c1ccc(C2OCc3ccc(CCl)cc3CO2)cc1` (stereo not given), with 138 to 140 °C; and `COC(=O)c1cccc(OC)c1OS(=O)(=O)NC(=O)Nc1nc(C)cc(Cl)n1`, with 140 to 143 °C. Then `Cc1nc2c(c(-c3ccccc3)n1)CCN(c1ccnc([C@@H](C)O)n1)C2`, with 114 to 116 °C; and `O=c1cc(N2CCOCC2)oc2c(O)cccc12`, with 240 to 247 °C.

For the compound `COc1c(C#N)c2cc(Cl)c(Cl)cc2n1C1OC(CO)C(O)C1O` (stereo not given), the melting point was 245 to 246 °C. The value for `CC(C)C(=O)C(=CN(C)C)c1ccc(Cl)cc1` was 95 °C; that for `COC(=O)c1ccc2ncccc2c1C(=O)OC` was 124 to 125 °C; that for `N#Cc1ccc2sc3c(c2c1)CC(C=O)CC3` (stereo not given) was 172 to 173 °C.

Take `O=[N+]([O-])c1cccc(-c2ccccc2O)c1`: the melting point fell in the range of 99.5 to 100 °C.

In turn, `Cc1cc(Cn2c(O)nc3c(N)nc(C)c(C)c32)on1` yielded a melting point of more than 300 °C. The value for `CNc1cc(C)c(O)c(C)c1C` was 120 to 122 °C; that for `CCN(CCCCc1coc2c(OC)cccc12)C1COc2c(F)ccc(C(N)=O)c2C1` (stereo not given) was 112 to 118 °C; that for `Oc1ccc2nc(-c3cccc(O)c3O)oc2c1` was 256 to 258 °C. The value for `CCn1ncnc1COc1nn2c(-c3ccc(F)cc3)nncc2c1C(C)(C)C` was 190 °C; that for `N#Cc1cnc2cnc(F)cc2c1Nc1ccc(Cl)cc1Cl` was 206 to 208 °C. Then `CCOP(=O)(Cc1ccc(C(=O)O)cc1)OCC`, with 117 to 120 °C; and `CCc1cc(C)c2c(-c3cccc(Br)c3)cc(=O)n(CC)c2n1`, with 107 to 108 °C. `Nc1ccc(C(=O)c2cccc3c2NCC3)cc1` came in with a melting point of 133 to 135 °C.

`CCC(C(=O)N(CC)CC)n1ccc(-c2ccccc2)n1` (stereo not given): the melting point is 63 to 66 °C. The value for `CN(C)C=Cc1ncc([N+](=O)[O-])n1CCc1ccncc1` was 190 to 191 °C; that for `COC(=O)[C@H](CC(C)C)NC(=O)CCC(=O)Nc1ccc(Nc2ccccc2)cc1` was 134 to 135 °C. Then `O=C(OCc1cc(-c2ccccc2)c(=O)n2c1-c1sccc1CN2)N1CCOCC1`, with 207 to 210 °C; and `CC(NC(CCc1ccccc1)C(=O)O)C(=O)OC(Cc1ccccc1)C(=O)O` (stereo not given), with 199 to 200 °C; and `CCOC(=O)NCn1cccc1C(=O)c1ccc(Cl)cc1Cl`, with 79 to 80 °C. Then `Fc1ccc(C(Cl)(c2ccccc2)c2ccccc2)cc1`, with 88 °C; and `C[C@H]1C=CC2=C[C@@H](O)C[C@H](OC(=O)CC(C)(C)C)[C@@H]2[C@H]1CC[C@@H]1C[C@@H](O)CC(=O)O1`, with 155 °C; and `CCOc1cccc2cc(S(=O)(=O)Nc3ccc(OC)cc3)c(=O)oc12`, with 196 to 198 °C. For the compound `NC(=O)c1nccc(Cl)c1Cl`, the melting point was in the range of 174 to 175 °C.

Regarding `CC[C@@H](O)CC(=O)N[C@H]1CC[C@H](CCN2CCC(c3cccc4c3CCO4)CC2)CC1`, the melting point stood at 201 °C. The value for `CCCCCCCCCC[C@@]1(C)OO[C@@H]2C[C@H]1CC(=O)[C@@H]2C` was 40 °C; that for `CCOC(=O)c1cn2c3c(c(Cl)c(F)cc3c1=O)C(=O)CC2C` (single isomer, unassigned; (-)) was 252 to 254 °C; that for `CCCOc1cc(Oc2ccc(C(F)(F)F)cn2)ccc1CCCOc1c(CC(=O)O)cccc1OC` was 78 to 79 °C. Then `COC(=O)C1CN(Cc2cccnc2)C(=O)C(=C2SC=CS2)C1=O` (stereo not given), with 111 to 114 °C; and `CNC(=O)NC(C)C(C)CC(=O)NS(=O)(=O)c1ccc(C)cc1` (stereo not given), with 120 to 125 °C.

`Cc1cccc(Nc2nnc(Cc3ccncc3)c3ccccc23)c1`: the melting point was in the range of 141 to 143 °C. Then `CC1=C(C)C(=O)C(CN2C(=O)[C@H]3CCC[C@H]3N(C(=O)CN3C(=O)c4ccccc4C3=O)c3ccccc32)=C(C)C1=O` (relative stereo), with 258 to 260 °C; and `C#CCN(C(C)C)C(C)CC1=C2c3ccc(OC)cc3CCC2CCNC1=O` (stereo not given), with 146 to 148 °C. With `CCOC(=O)c1[nH]c2ccccc2c1Br`, the melting point fell in the range of 150 to 152 °C. `Nc1ccc2c(c1)c(=O)oc1cccc(O)c12` gave a melting point of more than 260 °C. Then `O=CN(O)C(CCO)CS(=O)(=O)c1ccccc1Oc1ccc(OC(F)(F)F)cc1` (stereo not given), with 120 to 123 °C; and `Cc1cc2c(cc1Br)C(C)(C)C=CC2(C)C`, with 103 to 105 °C. For `CCCCC1=NC2(CCCC2)C(=O)N1Cc1ccc(-c2ccccc2S(=O)(=O)Nc2onc(C)c2C)c(COCC)c1`, the melting point was in the range of 74 to 80 °C. For `O=[N+]([O-])c1ccc2c(c1)S(=O)(=O)NCN2CCF`, the melting point is 165 to 166 °C. The value for `Cc1ccc(C(=O)NC(C)C)c(Nc2ccc3cn[nH]c3c2)n1` was 212 to 214 °C; that for `Cc1ccc(Cc2cnc(NCCCCc3ncc(Br)cc3C)[nH]c2=O)cn1` was 151 to 152 °C; that for `CCCCC[C@H]1CC[C@H](c2ccc(-c3nc(N)nc(N)n3)cc2)CC1` was more than 250 °C. In the case of `c1ccc(-c2nc3n(n2)Cc2ccccc2-3)cc1`, the melting point lay in the range of 156 to 158 °C. With `CCN1C(=O)CCCc2cc(Nc3ncc(Cl)c(N[C@H]4[C@@H](C(N)=O)[C@@H]5C=C[C@H]4C5)n3)c(OC)cc21`, the melting point is 145 to 153 °C. Then `CC(=O)NCCC1CCc2ccc3nc(C)oc3c21` (stereo not given), with 93 to 95 °C; and `N=C(c1ccccc1)c1ccccc1N`, with 48 °C.

Take `COc1ccc2c(c1)c(SC)c(C(=O)O)n2C`: the melting point is 165 °C.

`CCCN1C(=O)N2CC(Cc3ccccc3)N=C2c2[nH]c(C(C)OCC)nc21` (stereo not given) registered a melting point of 165 to 170 °C. The value for `COC(=O)c1cc(C)c(-c2cccc(O)c2C)c(C)c1` was 149 °C; that for `CC(C)CCN1C(=O)C(N)C(=O)Nc2ccccc21` (stereo not given) was 148 to 150 °C; that for `O=C(Nc1ccn(CC(O)CF)c(=O)n1)c1ccccc1` (racemic) was 205 °C. The value for `Oc1c(C2CCCC2)cc(CSCc2cc(C3CCCC3)c(O)c(C3CCCC3)c2)cc1C1CCCC1` was 149 to 150 °C; that for `COc1cnc(CO)cc1OC1CCCC1` was 93 to 94.5 °C. Then `COc1ccc(F)cc1N1CCN(CCCN2Cc3cc(Cl)c(S(N)(=O)=O)cc3C2=O)CC1`, with 158 to 163 °C; and `O=CNCCCCCCO`, with 43.5 to 45 °C; and `Cc1ccc(S(=O)(=O)c2ccc3c(c2)c(CCN(C)C(=O)OC(C)(C)C)cn3C)cc1`, with 143 to 145 °C. For the compound `Cn1c(=O)ccc2cnc(NCCc3ccccn3)nc21`, the melting point lay within 155 to 156 °C. Then `CS(=O)(=O)c1nccn1-c1nc(-c2ccc(Cl)cc2)c(CCC(=O)O)o1`, with 166 to 167 °C.
